- melting point: 250 to 255 °C (dec.)
SMILES: C[C@H](CO)Nc1nc(SCc2ccccc2F)nc2[nH]c(N)nc12 [Example 4, (2R)-2-[[8-amino-2-[[(2-fluorophenyl)methyl]thio]-9H-purin-6-yl]amino]-1-propanol]

Source: patent US6958344B2, “Pyrimidine compounds and their use as modulators of chemokine receptor activity” (AstraZeneca AB, priority 2000, dated 2005)
